Read-outs that look alike come from different tables or passages of the source.
How the values were obtained:
[1] = tested on: developmental or reproductive toxicity in animal or human; conditions: cited from earlier work
[2] = Human in vivo PK data: concentration-dose ratio (CDR) and toxicokinetic variability factor (TKVF); design: 95% percentile (Conc-dose-ratio): unit not given here;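 note: Literature-pooled human in vivo PK data, plasma, serum or cord blood concentrations per daily dose, weighted by study population size across non-pregnant, pregnant and fetal groups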
humans = conditions: ref Supplementary Data Sheet 1, cited from earlier work
[3] = tested on: human induced pluripotent stem cell (hiPSC); assay: devTOX quickPredict (ornithine/cystine ratio, cell viability); type: cell-based; conditions: at concentrations above the TDI
Description: devTOX quickPredict is a human induced pluripotent stem cell (hiPSC) -based assay that predicts the concentration at which a compound may elicit developmental toxicity. […] Assays were performed as described in [Palmer et al. (2013)] with modifications. Briefly undifferentiated hiPSCs are exposed to the compound for 48 h, with media and test article replacement every 24 h. Ornithine and […] concentrations were measured from the final 24-h treatment using Ultra-Performance Liquid Chromatography-High Resolution Mass Spectrometry (UPLC-HRMS). Cell viability was assessed after sample collection using the CellTiter-Fluor Cell Viability Assay (Promega). Dose-response analysis for the o/c ratio, cell viability, ornithine response and cystine response were performed with GraphPad Prism (version 9.1 or newer, GraphPad Software). Each data set was fit with a nonlinear model. The standard model used for analysis is a four-parameter log-logistic nonlinear model. However, the Akaike information criterion (GraphPad Prism) was used to determine if an asymmetric (five-parameter) or multiphasic nonlinear model was a better fit for the data than the four-parameter model. The developmental toxicity potential (dTP, o/c ratio) and toxicity potential (TP, cell viability) concentrations were predicted from the respective dose-response curves using the hiPSCs cell developmental toxicity threshold (dTT, 0.85).

[4] = human
[5] = hepatic intrinsic clearance, CLint (PBK parameter); type: in vitro ADME
[6] = tested on: human developmental and reproductive toxicity; conditions: cited from earlier work
[7] = cited from earlier work
[8] = parental/systemic toxicity, not reproductive effects; ref Supplementary Data Sheet 1; cited from earlier work
[9] = ref FSCJ, EFSA, SCF, JMPR as named in the cell; cited from earlier work
[10] = Bioactivity exposure ratio (BER): minimum platform PoD / estimated Cmax
[11] = evidence of developmental or reproductive toxicity in animal or human, irrespective of exposure/dose, ref Supplementary Data Sheet 1
[12] = Foetus, oral, combined (retinyl palmitate, dietary retinoids)
[13] = Non-Pregnant, oral, combined (retinyl palmitate, dietary retinoids)
[14] = Pregnant, oral, combined (retinyl palmitate, dietary retinoids)

In the case of `CCOP(=S)(OCC)Oc1nc(Cl)c(Cl)cc1Cl` [Chlorpyrifos], the “DART Hazard Call” value [1] is listed as “Toxic”, the “Mean Conc-dose -ratio” value ([2]; Non-Pregnant, oral) is listed as 0.002 uM/(mg/day] and the “level of the high exposure group associated with developmental neurotoxicity” value (humans; prenatal exposure, cord blood biomonitoring) is listed as “The high exposure CPF group (≥4.39 pg/g) was associated with developmental neurotoxicity”.
In the case of `CCCCOC(=O)c1ccccc1C(=O)OCCCC` [Dibutyl phthalate (DBP), Dibutyl phthalate], the “DART Hazard Call” value [1] is given as “Toxic” and the “response in devTox quickPredict” value [3] is given as “positive response”.
With `CCCCOC(=O)c1ccccc1C(=O)OCCCC` [Dibutyl phthalate] the “Renal Clearance” value [4] was 0.2 L/h and the “Intrinsic Liver Clearance” value [5] was 1887.4 L/h.
In the case of `CCOc1cc(CCC(C)=O)ccc1O` [Ethylzingerone], the “Exposure risk (DART risk classification)” value [6] is listed as “Low Risk”, the “Aqueous Solubility” value ([7]; pH 6.25) is listed as 7590 µg/mL and the “Renal Clearance” value [4] is listed as 2.012 L/h. The “DART Hazard Call” value [1] was “Non Toxic”.
For `CC(C)(C)c1ccc(CCOc2ncnc3ccccc23)cc1` [Fenazaquin], the “Exposure risk (DART risk classification)” value ([6]; Dietary, 3 mg/daily, oral, ref Supplementary Data Sheet 1) is given as “Low Risk”, the “Aqueous Solubility” value ([7]; Solubility pH 7.01, median, ref [7],[8]) is given as 0.19 µg/mL and the “Renal Clearance” value [4] is given as 0.577 L/h. For the same compound, the “DART Hazard Call” value [1, 11] was “Non Toxic”, the “NOAEL on which the ADI is based” value [8] was “No evidence of developmental or reproductive toxicity. ADI is based on the NOAEL from this study of 5 mg/kg/day but this was based on parental/systemic toxicity and not reproductive effects” and the ADI [9] was “ADI set by JMPR (0.05 mg/kg/day)”. It also gave a BER ([10]; low-risk exposure scenario of the compound) of less than 1.
For `CC1=C(/C=C/C(C)=C/C=C/C(C)=C/CO)C(C)(C)CCC1` [Retinol], the “Exposure risk (DART risk classification)” value ([6]; Cosmetic, 0.05% in body lotion, dermal, ref Supplementary Data Sheet 1) is listed as “Low Risk”, the “Exposure risk (DART risk classification)” value ([6]; Dietary, <10,000 IU, oral, ref Supplementary Data Sheet 1) is listed as “Low Risk” and the “DART Hazard Call” value [1, 11] is listed as “Toxic”. The “CDR fold difference to non-pregnant” value ([2]; Fetus population) was 0.82, the TKVF ([2]; Fetus population, TKVF95 = p95 / weighted mean concentration-dose ratio) was 1.86 and the “95% percentile (Conc-dose-ratio)” value [2, 12] was 2.85. For the same compound, the “Fold Difference to non-pregnant” value [2, 12] was 0.82, the “Fold Difference to pregnant” value [2, 12] was 0.93 and the “Mean Conc-dose -ratio” value [2, 12] was 1.54 uM/(mg/day]. The TKVF [2, 12] was 1.86, the “CDR fold difference to non-pregnant” value ([2]; Non-Pregnant population (reference)) was 1.00 and the TKVF ([2]; Non-Pregnant population, TKVF95 = p95 / weighted mean concentration-dose ratio) was 2.32. For the same compound, the “95% percentile (Conc-dose-ratio)” value [2, 13] was 4.34, the “Fold Difference to non-pregnant” value [2, 13] was 1.00 and the “Mean Conc-dose -ratio” value [2, 13] was 1.87 uM/(mg/day]. For the same compound, the TKVF [2, 13] was 2.32, the “CDR fold difference to non-pregnant” value ([2]; Pregnant population) was 0.88 and the TKVF ([2]; Pregnant population, TKVF95 = p95 / weighted mean concentration-dose ratio) was 1.64. For the same compound, the “95% percentile (Conc-dose-ratio)” value [2, 14] was 2.70, the “Fold Difference to non-pregnant” value [2, 14] was 0.88 and the “Fold Difference to pregnant” value [2, 14] was 1.00. The “Mean Conc-dose -ratio” value [2, 14] was 1.65 uM/(mg/day], the TKVF [2, 14] was 1.64 and the “exposure above which DART effects are seen in vivo” value (humans) was “above 3,000 μg RE/day”. For the same compound, the BER ([10]; low-risk scenario of normal dietary exposure to retinol and its metabolite) was less than 1.
In the case of `O=C1CCC(N2C(=O)c3ccccc3C2=O)C(=O)N1` (stereo not shown) [Thalidomide], the “Exposure risk (DART risk classification)” value ([6]; Pharmaceutical, 50 mg/daily, oral, ref Supplementary Data Sheet 1) is listed as “High Risk”, the “DART Hazard Call” value [1, 11] is listed as “Toxic” and the “95% percentile (Conc-dose-ratio)” value ([2]; human, in vivo, po) is listed as 0.06. For the same compound, the “Mean Conc-dose -ratio” value ([2]; human, in vivo, po) was 0.036 uM/(mg/day], the TKVF ([2]; human, in vivo, po) was 1.73 and the “mortality at or shortly after birth” value (humans; infants) was “Thalidomide is a powerful human teratogen, inducing a high frequency of severe and life-threatening birth defects, even after a single dose. Mortality at or shortly after birth has been reported in about 40% of infants”.

Source: article PMC12256496, “An advancement in developmental and reproductive toxicity (DART) risk assessment: evaluation of a bioactivity and exposure-based NAM toolbox” (Frontiers in Toxicology, 2025)
